From ChEMBL document CHEMBL1143186, “Total synthesis and evaluation of [18F]MHMZ” (Bioorg Med Chem Lett, 2008) come the findings set out here.

For orientation: Ki means the dissociation constant of the complex between target and ligand, obtained from inhibition or displacement. High values mean a looser hold on the target, low ones a stronger hold on the target.

Each structure is given as a SMILES string.

The target of series [1] is 5-hydroxytryptamine receptor 2A (Rattus norvegicus, UniProt P14842). Briefly: Displacement of [3H]MDL from rat 5HT2A receptor expressed in GF62 cells. Type of series: cell-based. On the technique in general: Loss of bound radioactivity is the signal in a displacement assay; it reports binding, not function.
A short description of series [2]: Metabolic stability in rat plasma assessed as unmetabolized fraction after 5 mins. The series is classed as ADME, cell-free. The following applies: read-out: Stability.
Series [3] has as its system Caudate-putamen. As to the kind of experiment: Drug level in rat brain caudate-putamen. The conditions noted are these: in vivo. Type of series: ADME, tissue-based.
Series [4] deals with Laminae. As to the kind of experiment: Drug level in rat brain laminae 6a + 6b region. The series is classed as ADME, tissue-based. The following applies: in vivo.
Series [5] has as its system Nucleic Acid. As to the kind of experiment: Ratio of drug level in laminae 6a + 6b region to cerebellum in rat. The series is classed as ADME, tissue-based. The following applies: in vitro.
Series [6] deals with Nucleic Acid. As to the kind of experiment: Ratio of drug level in lamina 5 region to cerebellum in rat. Type of series: ADME, tissue-based. The following applies: in vivo.
A short description of series [7]: Metabolic stability in rat plasma assessed as unmetabolized fraction after 60 mins. Type of series: ADME, cell-free. The following applies: read-out: Stability.
Series [8] relates to Brain. As to the kind of experiment: Drug level in rat brain laminae 1-4 region. The series is classed as ADME, tissue-based. The following applies: in vivo.
The nature of series [9]: Metabolic stability in rat plasma assessed as unmetabolized fraction after 30 mins. Type of series: ADME, cell-free. The following applies: read-out: Stability.
The test system of series [10] is Nucleic Acid. Briefly: Ratio of drug level in laminae 1-4 region to cerebellum in rat. The series is classed as ADME, tissue-based. The conditions noted are these: in vivo.
For series [11], the system named is Brain. Briefly: Drug level in rat brain lamina 5 region. The series is classed as ADME, tissue-based. The following applies: in vivo.
Series [12] is described as follows: Metabolic stability in rat plasma assessed as unmetabolized fraction after 10 mins. The series is classed as ADME, cell-free. The following applies: read-out: Stability.
The subject of series [13] is Nucleic Acid. As to the kind of experiment: Ratio of drug level in caudate-putamen to cerebellum in rat. The series is classed as ADME, tissue-based. The following applies: in vitro.
The target of series [14] is 5-hydroxytryptamine receptor 2A (Homo sapiens, UniProt P28223). As to the kind of experiment: Binding affinity to 5HT2A receptor.
Chain of 5-hydroxytryptamine receptor 2A (Homo sapiens, UniProt P28223) (P28223 whole entry): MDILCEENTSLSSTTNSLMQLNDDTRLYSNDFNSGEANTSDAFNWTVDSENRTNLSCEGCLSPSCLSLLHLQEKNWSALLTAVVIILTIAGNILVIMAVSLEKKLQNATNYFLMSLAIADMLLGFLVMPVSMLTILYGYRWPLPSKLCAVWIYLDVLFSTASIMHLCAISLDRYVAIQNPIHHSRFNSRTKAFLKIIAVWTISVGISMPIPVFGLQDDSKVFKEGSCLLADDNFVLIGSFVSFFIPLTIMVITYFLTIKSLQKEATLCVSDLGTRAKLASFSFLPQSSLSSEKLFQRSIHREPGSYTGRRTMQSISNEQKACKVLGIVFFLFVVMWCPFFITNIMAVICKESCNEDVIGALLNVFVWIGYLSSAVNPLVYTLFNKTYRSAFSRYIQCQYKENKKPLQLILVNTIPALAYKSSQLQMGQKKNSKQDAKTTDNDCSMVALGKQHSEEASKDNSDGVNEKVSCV

Chain of 5-hydroxytryptamine receptor 2A (Rattus norvegicus, UniProt P14842) (P14842 whole entry): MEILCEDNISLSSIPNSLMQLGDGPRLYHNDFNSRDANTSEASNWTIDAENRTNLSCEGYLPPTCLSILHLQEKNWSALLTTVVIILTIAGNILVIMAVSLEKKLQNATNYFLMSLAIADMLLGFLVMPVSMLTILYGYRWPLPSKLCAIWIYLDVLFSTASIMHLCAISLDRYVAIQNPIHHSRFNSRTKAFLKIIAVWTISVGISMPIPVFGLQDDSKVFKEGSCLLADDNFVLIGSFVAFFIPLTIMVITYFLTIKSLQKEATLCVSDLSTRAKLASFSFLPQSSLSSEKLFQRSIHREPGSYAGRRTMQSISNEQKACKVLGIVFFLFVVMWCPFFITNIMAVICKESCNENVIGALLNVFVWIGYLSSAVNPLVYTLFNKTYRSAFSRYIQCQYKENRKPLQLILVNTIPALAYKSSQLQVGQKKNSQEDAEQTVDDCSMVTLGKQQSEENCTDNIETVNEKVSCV

As to `COc1c(OCCF)cccc1C(O)C1CCN(CCc2ccc(F)cc2)CC1` (stereo not given), the inhibition constant Ki in series [1] worked out at 9 nM.

`COc1c(OCC[18F])cccc1C(O)C1CCN(CCc2ccc(F)cc2)CC1` (stereo not given): in series [2], the remaining at 5 min stood at 43%. In addition, the Drug uptake in series [3] came out at 16.8 pmol/mm3; in series [4] it was 27.27 pmol/mm3; in series [8], 23.3 pmol/mm3; in [11], 51.6 pmol/mm3. For the same molecule, the Ratio stood at 31.4 in [5], 59.5 in series [6], 26.9 in series [10] and 19.2 in series [13]. Also, the remaining at 1 h in series [7] turned out to be 7%. The remaining at 0.5 h in series [9] worked out at 16%. Besides, in series [12], the remaining at 10 min turned out to be 32%.

As for `O=C(c1ccc(F)cc1)C1CCN(CCn2c(=S)[nH]c3ccccc3c2=O)CC1` [ALTANSERIN], the Ki in [1] amounted to 0.74 nM; in series [14] it was 0.13 nM.
